The results in this text go back to ChEMBL document CHEMBL1139473, “Design, synthesis, and biological evaluation of dual binding site acetylcholinesterase inhibitors: new disease-modifying agents for Alzheimer's disease” (J Med Chem, 2005).

SMILES strings stand for the structures.

In general, IC50 refers to the concentration needed to halve the response being measured. A low value points to greater potency in that assay. What is called Ki is the equilibrium dissociation constant of an inhibitor or competing ligand from its target. A higher Ki goes with lower affinity. As a reminder, the inhibition is the percentage by which the read-out fell short of the control. A low value points to little suppression.

Data set [1] concerns the target T1, Acetylcholinesterase (Bos taurus, UniProt P23795).
T1 sequence (P23795 whole entry): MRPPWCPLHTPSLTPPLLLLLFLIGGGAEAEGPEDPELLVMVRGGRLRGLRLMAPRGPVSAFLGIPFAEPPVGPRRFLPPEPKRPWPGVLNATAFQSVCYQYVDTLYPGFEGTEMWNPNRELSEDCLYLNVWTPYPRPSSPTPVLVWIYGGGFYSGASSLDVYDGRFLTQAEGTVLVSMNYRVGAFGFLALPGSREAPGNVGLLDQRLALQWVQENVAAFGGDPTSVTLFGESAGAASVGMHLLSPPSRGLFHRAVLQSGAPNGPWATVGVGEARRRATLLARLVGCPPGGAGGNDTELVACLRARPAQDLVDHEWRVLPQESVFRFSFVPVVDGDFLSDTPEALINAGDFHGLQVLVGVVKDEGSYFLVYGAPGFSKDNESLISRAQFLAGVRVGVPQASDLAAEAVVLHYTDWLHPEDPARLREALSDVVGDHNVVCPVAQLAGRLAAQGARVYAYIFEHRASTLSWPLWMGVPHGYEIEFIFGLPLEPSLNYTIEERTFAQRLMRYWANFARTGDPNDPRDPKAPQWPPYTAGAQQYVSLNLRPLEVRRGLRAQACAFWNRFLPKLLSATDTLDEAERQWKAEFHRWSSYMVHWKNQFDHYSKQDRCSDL
Kind of data set: biochemical.
Description: Inhibition of AchE in bovine erythrocytes

For data set [2], the target named is T2, Acetylcholinesterase (Homo sapiens, UniProt P22303).
T2 sequence (P22303 whole entry): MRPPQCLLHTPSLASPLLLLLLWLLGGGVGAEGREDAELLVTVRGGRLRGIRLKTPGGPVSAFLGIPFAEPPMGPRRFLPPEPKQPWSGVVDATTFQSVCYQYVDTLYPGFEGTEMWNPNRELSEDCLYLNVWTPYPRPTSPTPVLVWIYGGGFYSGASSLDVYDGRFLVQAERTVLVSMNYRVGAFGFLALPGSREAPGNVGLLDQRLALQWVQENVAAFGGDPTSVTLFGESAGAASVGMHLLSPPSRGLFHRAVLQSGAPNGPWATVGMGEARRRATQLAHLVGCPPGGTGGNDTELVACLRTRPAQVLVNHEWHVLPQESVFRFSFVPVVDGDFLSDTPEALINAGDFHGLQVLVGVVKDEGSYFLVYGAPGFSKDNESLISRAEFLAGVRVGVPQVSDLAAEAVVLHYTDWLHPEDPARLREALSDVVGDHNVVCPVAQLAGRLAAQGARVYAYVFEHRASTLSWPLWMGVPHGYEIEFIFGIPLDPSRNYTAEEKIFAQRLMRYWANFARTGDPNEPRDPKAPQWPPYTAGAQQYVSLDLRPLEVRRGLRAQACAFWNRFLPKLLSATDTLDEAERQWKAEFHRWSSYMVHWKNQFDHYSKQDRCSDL
Description: Inhibition of human brain AchE
In data set [3] the target is T2, Acetylcholinesterase. Kind of data set: Inhibition of human AChE-induced beta amyloid peptide(1-40) aggregation at 100 uM by thioflavin T-based fluorometric assay. It is filed as functional.
Data set [4] deals with Cholinesterases; ACHE & BCHE (Homo sapiens) (UniProt P06276+P22303). Kind of data set: Selectivity for human BChE over human AChE. It is filed as protein assay.
Sequence of Cholinesterases; ACHE & BCHE (Homo sapiens) (P06276 whole entry, looked up): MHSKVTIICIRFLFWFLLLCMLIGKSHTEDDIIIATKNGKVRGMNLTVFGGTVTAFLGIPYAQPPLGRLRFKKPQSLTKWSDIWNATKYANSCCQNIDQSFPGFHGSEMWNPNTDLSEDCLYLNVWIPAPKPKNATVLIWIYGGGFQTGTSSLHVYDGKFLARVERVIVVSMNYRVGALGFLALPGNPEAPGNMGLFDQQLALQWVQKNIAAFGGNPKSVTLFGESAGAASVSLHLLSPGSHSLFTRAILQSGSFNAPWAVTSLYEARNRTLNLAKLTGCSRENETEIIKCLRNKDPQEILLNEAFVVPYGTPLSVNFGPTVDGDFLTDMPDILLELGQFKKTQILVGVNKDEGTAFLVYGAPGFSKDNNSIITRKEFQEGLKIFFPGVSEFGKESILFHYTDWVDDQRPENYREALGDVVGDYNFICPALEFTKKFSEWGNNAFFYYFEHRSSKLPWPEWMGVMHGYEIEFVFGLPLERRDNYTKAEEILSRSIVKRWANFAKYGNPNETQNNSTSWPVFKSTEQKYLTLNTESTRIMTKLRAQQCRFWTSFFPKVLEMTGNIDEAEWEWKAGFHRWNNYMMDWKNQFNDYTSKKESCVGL
Sequence of Cholinesterases; ACHE & BCHE (Homo sapiens) (P22303 whole entry, looked up): as the sequence (P22303 whole entry) above
Data set [5] has as its target T2, Acetylcholinesterase. This is another data set of the same source.
The target in the next data set is Cholinesterase (Homo sapiens, UniProt P06276).
Sequence of Cholinesterase (P06276 whole entry): as the sequence (P06276 whole entry, looked up) above
In another data set the test system is SH-SY5Y. As to the kind of experiment: Cytotoxicity against human SHSY5Y cells at 10 uM after 48 hrs. It is filed as cell-based.

In the case of `O=C(Cc1c[nH]c2ccc(Br)cc12)NCCCCCCCNc1c2c(nc3cc(Cl)ccc13)CCCC2`, the IC50 at Acetylcholinesterase [1] was 0.6 nM; on Acetylcholinesterase [2] it was 0.23 nM; at Acetylcholinesterase [5], 15000 nM. Also, the Ki on Acetylcholinesterase [2] came out at 0.02 nM. On Acetylcholinesterase [3], this molecule showed an inhibition of 82%. In data set [4], the Ratio IC50 is 0.14.
Take `O=C(Cc1c[nH]c2ccccc12)NCCCCCCCNc1c2c(nc3cc(Cl)ccc13)CCCC2`: the IC50 against Acetylcholinesterase [1] was 0.2 nM; at Cholinesterase, 11.7 nM; on Acetylcholinesterase [2] it was 0.12 nM; against Acetylcholinesterase [5], 7000 nM. Also, affinity at Acetylcholinesterase [2] was put at a Ki of 0.015 nM. The inhibition against Acetylcholinesterase [3] was 84%. In addition, the Ratio IC50 in data set [4] came to 0.01.
On to `O=C(CCc1c[nH]c2ccccc12)NCCCCCCCCCCNc1c2c(nc3ccccc13)CCCC2`, for which the IC50 was found to be 21.9 nM against Acetylcholinesterase [1] and 54 nM against Cholinesterase.
Consider `CN(CCCNC(=O)CCc1c[nH]c2ccccc12)CCCNc1c2c(nc3cc(Cl)ccc13)CCCC2`, for which half-maximal inhibition on Cholinesterase (IC50) required 21.4 nM. Moreover, the outcome in the data set with SH-SY5Y was Active.
For `O=C(CCOc1c[nH]c2ccccc12)NCCCCCCNc1c2c(nc3cc(Cl)ccc13)CCCC2`, the figures for the concentration for half-maximal inhibition (IC50) against Acetylcholinesterase [1] and at Cholinesterase were 0.7 nM and 60 nM, respectively.
For `O=C(CCc1c[nH]c2ccccc12)NCCCCCCCNc1c2c(nc3cc(Cl)ccc13)CCCC2`, the IC50 came to 0.02 nM at Acetylcholinesterase [2] and 6000 nM at Acetylcholinesterase [5]. On Acetylcholinesterase [2], this molecule showed a Ki of 0.009 nM. The molecule further showed an inhibition against Acetylcholinesterase [3] of 96%. Moreover, the Ratio IC50 in data set [4] is 0.22. For the same molecule, the result in the data set on SH-SY5Y was Active.
For the molecule `O=C(/C=C/c1c[nH]c2ccccc12)NCCCCCCNc1c2c(nc3cc(Cl)ccc13)CCCC2`, the figures for the IC50 on Acetylcholinesterase [1] and on Cholinesterase were 18 nM and 77 nM, respectively.
For the molecule `O=C(CCc1c[nH]c2ccccc12)NCCCCCCCCNc1c2c(nc3cc(Cl)ccc13)CCCC2`, the outcome in the data set with SH-SY5Y was Active.
On to `O=C(CCCc1c[nH]c2ccccc12)NCCCCCCNc1c2c(nc3cc(Cl)ccc13)CCCC2`, for which 0.5 nM corresponded to half-maximal inhibition at Acetylcholinesterase [1] (IC50).
`O=C(CCc1c[nH]c2ccccc12)NCCCCCNc1c2c(nc3cc(Cl)ccc13)CCCC2`: the IC50 against Cholinesterase turned out to be 16 nM.
The molecule `O=C(CCc1c[nH]c2ccccc12)NCCCCCCCCCc1c2c(nc3cc(Cl)ccc13)CCCC2` had an IC50 against Cholinesterase of 9.6 nM.
Consider `Cn1cc(C(=O)NCCCCCCCNc2c3c(nc4cc(Cl)ccc24)CCCC3)c2ccccc21`, for which the IC50 at Acetylcholinesterase [1] is 10.9 nM; at Cholinesterase, 206 nM.
The like results for `O=C(CCOc1c[nH]c2ccccc12)NCCCCCCCNc1c2c(nc3cc(Cl)ccc13)CCCC2` were, in that order, 3 nM and 59 nM.
On Acetylcholinesterase [2], `O=C(CCc1c[nH]c2ccccc12)NCCCCCCNc1c2c(nc3cc(Cl)ccc13)CCCC2` returned an IC50 of 0.07 nM and a Ki of 0.014 nM. Also, the inhibition against Acetylcholinesterase [3] turned out to be 98%. Also, the Ratio IC50 in data set [4] was found to be 0.02. Further, the midpoint of inhibition at Acetylcholinesterase [5], the IC50, lay at 2000 nM.
On to `O=C(CCCc1c[nH]c2ccccc12)NCCCCCNc1c2c(nc3cc(Cl)ccc13)CCCC2`, for which the half-maximal inhibitory concentration (IC50) came out at 0.3 nM against Acetylcholinesterase [1], 3.2 nM on Cholinesterase, 0.13 nM against Acetylcholinesterase [2] and 2000 nM against Acetylcholinesterase [5]. This molecule also came in with a Ki on Acetylcholinesterase [2] of 0.0017 nM. Also, the inhibition against Acetylcholinesterase [3] stood at 99%. Moreover, the Ratio IC50 in data set [4] came to 0.04.
As for `N#Cc1ccc2[nH]cc(CCC(=O)NCCCCCCNc3c4c(nc5cc(Cl)ccc35)CCCC4)c2c1`, the IC50 came out at 0.7 nM on Acetylcholinesterase [1] and 11.7 nM against Cholinesterase.
For `O=C(CCOc1c[nH]c2ccccc12)NCCCCCNc1c2c(nc3cc(Cl)ccc13)CCCC2`, the half-inhibitory concentration (IC50) at Acetylcholinesterase [1] was 1.5 nM; against Cholinesterase it was 136 nM.
